Measured values from BindingDB's records for doi:10.1021/jm00100a018 (1992).
Counter-ions that a name gives are not always drawn.

Assays:
[1] = Concentration tested in vitro to inhibit PAF-induced maximum aggregation (PAF-Antagonistic activity) by 50%.
[2] = as above; remark: listed apart in the source

Structure (SMILES)	IC50 [1] [nM]	IC50 [2] [nM]
N#CC(c1cccnc1)N1CCN(C(=O)CNC(Cc2ccccc2)c2ccccc2)CC1 (stereo unspecified)	50	–
N#CC(c1cccnc1)N1CCN(C(=O)CNCC(c2ccccc2)c2ccccc2)CC1 (stereo unspecified)	220	–
N#CC(CN1CCN(C(=O)C(c2ccccc2)c2ccccc2)CC1)c1cccnc1 (stereo unspecified)	2300	–
CC(c1cccnc1)N1CCN(C(=O)C(c2ccccc2)c2ccccc2)CC1 (stereo unspecified)	1200	–
N#CC(c1cccnc1)N1CCN(CCNC(=O)C(c2ccccc2)c2ccccc2)CC1 (stereo unspecified)	36	–
N#CC(=C1CCN(C(=O)CC(c2ccccc2)c2ccccc2)CC1)c1cccnc1	26	–
N#CC(c1cccnc1)N1CCN(C(=O)NC(c2ccccc2)c2ccccc2)CC1 (stereo unspecified)	360	–
O=C(CC(c1ccccc1)c1ccccc1)N1CCN(Cc2cccnc2)CC1	520	–
N#CC(c1cccnc1)N1CCN(C(=O)Cc2ccccc2)CC1 (stereo unspecified)	2700	–
COc1cc(CC(=O)N2CCN(C(C#N)c3cccnc3)CC2)cc(OC)c1OC (stereo unspecified)	460	–
N#CC(c1cccnc1)C1CCN(C(=O)CNC(c2ccccc2)c2ccccc2)CC1 (stereo unspecified)	24	–
CC(C)(C)C(=O)N1CCN(C(C#N)c2cccnc2)CC1 (stereo unspecified)	5200	–
N#CC(c1cccnc1)N1CCN(C(=O)Cc2ccc3ccccc3c2)CC1 (stereo unspecified)	720	–
N#CC(c1cccnc1)N1CCN(C(=O)CCCc2ccccc2)CC1 (stereo unspecified)	260	–
CC(c1ccccc1)N(C)CC(=O)N1CCN(C(C#N)c2cccnc2)CC1 (stereo unspecified)	240	–
N#CC(c1cccnc1)N1CCN(C(=O)C(CCc2ccccc2)c2ccccc2)CC1 (stereo unspecified)	2600	–
N#CC(c1cccnc1)N1CCN(C(=O)Cc2cccc3ccccc23)CC1 (stereo unspecified)	76	–
N#CC(c1cccnc1)N1CCN(C(=O)C(Cc2ccccc2)c2ccccc2)CC1 (stereo unspecified)	230	–
COc1cc(C(=O)N2CCN(C(=O)c3cc(OC)c(OC)c(OC)c3)CC2)cc(OC)c1OC	9400	–
N#CC(c1cccnc1)N1CCN(CC(=O)NCCC(c2ccccc2)c2ccccc2)CC1 (stereo unspecified)	240	–

Structure (SMILES)	IC50 [1] [nM]	IC50 [2] [nM]
CN(CC(=O)N1CCN(C(C#N)c2cccnc2)CC1)C(c1ccccc1)c1ccccc1 (stereo unspecified)	60	–
CN(CC(=O)N1CCN(C(C#N)c2cccnc2)CC1)c1ccccc1 (stereo unspecified)	2800	–
CN(C)c1ccc(C(C#N)N2CCN(C(=O)CC(c3ccccc3)c3ccccc3)CC2)cc1 (stereo unspecified)	210000	–
Cn1ccc(C(C#N)N2CCN(C(=O)CC(c3ccccc3)c3ccccc3)CC2)c1 (stereo unspecified)	2600	–
N#CC(c1cccnc1)C1CCN(C(=O)C(c2ccccc2)c2ccccc2)CC1 (stereo unspecified)	21	–
O=C(CC(c1ccccc1)c1ccccc1)N1CCN(C(=O)c2cc[n+]([O-])cc2)CC1	1900	–
COc1cc(C(=O)N2CCN(C(=O)c3cccnc3)CC2)cc(OC)c1OC	5200	–
CC(NCC(=O)N1CCN(C(C#N)c2cccnc2)CC1)c1ccccc1 (stereo unspecified)	36	–
O=C(CC(c1ccccc1)c1ccccc1)N1CCN(C(=O)c2ccncc2)CC1	1900	–
CCCCC(=O)N1CCN(C(C#N)c2cccnc2)CC1 (stereo unspecified)	2600	–
Cn1cc(C(C#N)N2CCN(C(=O)CC(c3ccccc3)c3ccccc3)CC2)c2ccccc21 (stereo unspecified)	5700	–
N#CC(c1ccncc1)N1CCN(CCNC(c2ccccc2)c2ccccc2)CC1 (stereo unspecified)	36	–
COc1cc(C(=O)N2CCN(C(C#N)c3ccccn3)CC2)cc(OC)c1OC (stereo unspecified)	44000	–
N#CC(c1cccnc1)N1CCN(C(=O)Cc2c[nH]c3ccccc23)CC1 (stereo unspecified)	450	–
N#CC(c1cccnc1)N1CCC(OC(=O)CC(c2ccccc2)c2ccccc2)CC1 (stereo unspecified) [3,3-Diphenyl-propionic acid 1-(cyano-pyridin-3-yl-methyl)-piperidin-4-yl ester; dihydrochloride; hydrate]	2600	–
N#CC(c1cccnc1)N1CCN(C(=O)OCC(c2ccccc2)c2ccccc2)CC1 (stereo unspecified) [4-(Cyano-pyridin-3-yl-methyl)-piperazine-1-carboxylic acid 2,2-diphenyl-ethyl ester; dihydrochloride; hydrate]	26	–
COc1cc(CCC(=O)N2CCN(C(C#N)c3cccnc3)CC2)cc(OC)c1OC (stereo unspecified) [Pyridin-3-yl-{4-[3-(3,4,5-trimethoxy-phenyl)-propionyl]-piperazin-1-yl}-acetonitrile; dihydrochloride; hydrate]	400	–
CC(C(=O)N1CCN(C(C#N)c2cccnc2)CC1)c1ccccc1 (stereo unspecified) [[4-(2-Phenyl-propionyl)-piperazin-1-yl]-pyridin-3-yl-acetonitrile; dihydrochloride]	21	–
N#CC(c1cccnc1)N1CCN(C(=O)c2ccc3ccccc3c2)CC1 (stereo unspecified) [[4-(Naphthalene-2-carbonyl)-piperazin-1-yl]-pyridin-3-yl-acetonitrile; dihydrochloride]	–	25000

Other lines, results leading:

IC50 [1] [nM]	IC50 [2] [nM]	Structure (SMILES)
73000	–	COc1cc(CCC(=O)N2CCN(C(=O)c3cc(OC)c(OC)c(OC)c3)CC2)cc(OC)c1OC
1300	–	COc1cc(C(=O)N2CCN(C(=S)c3cccnc3)CC2)cc(OC)c1OC
11000	–	N#CC(c1cccc([N+](=O)[O-])c1)N1CCN(C(=O)CC(c2ccccc2)c2ccccc2)CC1 (stereo unspecified)
920	–	CCCCCCCC(=O)N1CCN(C(C#N)c2cccnc2)CC1 (stereo unspecified)
23000	–	O=C(c1cccnc1)N1CCN(C(=O)C(c2ccccc2)c2ccccc2)CC1
200	–	N#CC1(Nc2cccnc2)CCN(C(=O)CNC(c2ccccc2)c2ccccc2)CC1
21	–	N#CC(c1cncs1)N1CCN(C(=O)CC(c2ccccc2)c2ccccc2)CC1 (stereo unspecified)
7400	–	N#Cc1cccc(C(C#N)N2CCN(C(=O)CC(c3ccccc3)c3ccccc3)CC2)c1 (stereo unspecified)
2.7	–	N#CC(c1ccncc1)N1CCN(C(=O)CC(O)(c2ccccc2)c2ccccc2)CC1 (stereo unspecified)
15	–	N#CC1(Nc2cccnc2)CCN(C(=O)CC(c2ccccc2)c2ccccc2)CC1
9000	–	N#CC(c1cccc(C(F)(F)F)c1)N1CCN(C(=O)CC(c2ccccc2)c2ccccc2)CC1 (stereo unspecified)
2600	–	O=C(C(c1ccccc1)c1ccccc1)N1CCN(Cc2cccnc2)CC1
44000	–	O=C(C(c1ccccc1)c1ccccc1)N1CC[N+]([O-])(Cc2cccnc2)CC1
86	–	N#CC(c1cccnc1)N1CCN(C(=O)CNCCC(c2ccccc2)c2ccccc2)CC1 (stereo unspecified)
10	–	N#CC(c1cccnc1)N1CCN(C(=O)C(c2ccccc2)c2ccccc2)CC1 (stereo unspecified)
32	–	N#CC(c1cccnc1)N1CCN(C(=O)CN(Cc2ccccc2)Cc2ccccc2)CC1 (stereo unspecified)
7.5	–	N#CC(c1cccnc1)N1CCN(C(=O)/C(=C/c2ccccc2)c2ccccc2)CC1 (stereo unspecified)
680	–	N#CC(c1ccncc1)N1CCN(C(=O)CNC(=O)C(c2ccccc2)c2ccccc2)CC1 (stereo unspecified)
25000	–	Cn1cccc1C(C#N)N1CCN(C(=O)CC(c2ccccc2)c2ccccc2)CC1 (stereo unspecified)
130	–	N#CC(c1cccnc1)N1CCN(C(=O)CNc2ccccc2)CC1 (stereo unspecified)
200000	–	NC(=O)C(c1cccnc1)N1CCN(C(=O)C(c2ccccc2)c2ccccc2)CC1 (stereo unspecified)

IC50 [1] [nM]	IC50 [2] [nM]	Structure (SMILES)
5500	–	N#CC(c1cccnc1)N1CCN(CCNC(=O)CC(c2ccccc2)c2ccccc2)CC1 (stereo unspecified)
630	–	N#CC(c1cccnc1)N1CCN(CCC(c2ccccc2)c2ccccc2)CC1 (stereo unspecified)
24	–	N#CC(c1cccnc1)N1CCN(C(=O)CN(Cc2ccccc2)c2ccccc2)CC1 (stereo unspecified)
21000	–	N#CC(c1cccc(Cl)c1)N1CCN(C(=O)CC(c2ccccc2)c2ccccc2)CC1 (stereo unspecified)
23	–	N#CC(c1cccnc1)N1CCN(C(=S)C(c2ccccc2)c2ccccc2)CC1 (stereo unspecified)
2500	–	N#CC(c1cccnc1)N1CCN(C(=O)/C=C/c2ccccc2)CC1 (stereo unspecified)
240	–	CC(C#N)(c1cccnc1)N1CCN(C(=O)C(c2ccccc2)c2ccccc2)CC1 (stereo unspecified)
2600	–	N#CC(c1cccnc1)N1CCN(C(=O)CNc2cccc3ccccc23)CC1 (stereo unspecified)
> 200000	–	CCCCCCCCCCCCCCCC(=O)N1CCN(C(C#N)c2cccnc2)CC1 (stereo unspecified)
55	–	N#CC(c1ccncc1)N1CCN(C(=O)CCNC(c2ccccc2)c2ccccc2)CC1 (stereo unspecified)
530	–	N#CC(c1cccnc1)N1CCN(C(=O)CNCCCc2ccccc2)CC1 (stereo unspecified)
87	–	O=C(CC(c1ccccc1)c1ccccc1)N1CCC(Nc2cccnc2)CC1 [3,3-Diphenyl-1-[4-(pyridin-3-ylamino)-piperidin-1-yl]-propan-1-one; dihydrochloride; hydrate]
4800	–	N#CC(c1cccnc1)N1CCN(C(=O)c2ccccc2)CC1 (stereo unspecified) [(4-Benzoyl-piperazin-1-yl)-pyridin-3-yl-acetonitrile; dihydrochloride]
17000	–	COc1cc(C(=O)N2CCN(Cc3cccnc3)CC2)cc(OC)c1OC [(4-Pyridin-3-ylmethyl-piperazin-1-yl)-(3,4,5-trimethoxy-phenyl)-methanone; dihydrochloride; hydrate]
2200	–	CN(CCCc1ccccc1)CC(=O)N1CCN(C(C#N)c2cccnc2)CC1 (stereo unspecified) [(4-{2-[Methyl-(3-phenyl-propyl)-amino]-acetyl}-piperazin-1-yl)-pyridin-3-yl-acetonitrile; dihydrochloride; hydrate]
1900	–	COc1cc(C(=O)N2CCN(C(C#N)c3cccnc3)CC2)cc(OC)c1OC (stereo unspecified) [Pyridin-3-yl-[4-(3,4,5-trimethoxy-benzoyl)-piperazin-1-yl]-acetonitrile; dihydrochloride; hydrate]
1.9	–	CC(C(=O)N1CCN(C(C#N)c2cccnc2)CC1)(c1ccccc1)c1ccccc1 (stereo unspecified) [[4-(2,2-Diphenyl-propionyl)-piperazin-1-yl]-pyridin-3-yl-acetonitrile; dihydrochloride]
11	–	N#CC(c1cccnc1)N1CCN(C(=O)C(Cc2ccccc2)Cc2ccccc2)CC1 (stereo unspecified) [[4-(2-Benzyl-3-phenyl-propionyl)-piperazin-1-yl]-pyridin-3-yl-acetonitrile; dihydrochloride; hydrate]
240	–	N#CC(c1cccnc1)N1CCN(C(=O)CNCc2ccccc2)CC1 (stereo unspecified) [[4-(2-Benzylamino-acetyl)-piperazin-1-yl]-pyridin-3-yl-acetonitrile; dihydrochloride; hydrate]
51	–	N#CC(c1ccncc1)N1CCN(C(=O)CC(c2ccccc2)c2ccccc2)CC1 (stereo unspecified) [[4-(3,3-Diphenyl-propionyl)-piperazin-1-yl]-pyridin-4-yl-acetonitrile; dihydrochloride]
520	–	N#CC(c1cccnc1)N1CCN(C(=O)CCc2ccccc2)CC1 (stereo unspecified) [[4-(3-Phenyl-propionyl)-piperazin-1-yl]-pyridin-3-yl-acetonitrile; dihydrochloride; hydrate]
